Test results published in patent publication US11230538B2, “Herbicides” (SYNGENTA PARTICIPATIONS AG, priority 2016, dated 2022).

Legend:
Assay type in all cases: in vivo
Lolium perenne (LOLPE) [1] = assay: B2 Post-emergence herbicidal activity; settings: post-emergence application, rate 1000 g/ha, evaluated after 13 days
Description: (§1) Seeds of a variety of test species were sown in standard soil in pots: Triticum aestivium (TRZAW), Avena fatua (AVEFA), Alopecurus myosuroides (ALOMY), Echinochloa crus-galli (ECHCG), Lolium perenne (LOLPE), Zea Mays (ZEAMX), Abutilon theophrasti (ABUTH), Amaranthus retroflexus (AMARE) and Setaria fabenri (SETFA). After 8 days cultivation (post-emergence) under controlled conditions in a glasshouse (at 24/16° C., day/night; 14 hours light; 65% humidity), the plants were sprayed with an aqueous spray solution derived from the formulation of the technical active ingredient in acetone I water (50:50) solution containing 0.5% Tween 20 (polyoxyethelyene sorbitan monolaurate, CAS RN 9005-64-5). The test plants were then grown in a glasshouse under controlled conditions (at 24/16° C., day/night; 14 hours light; 65% humidity) and watered twice daily. After 13 days, the test was evaluated (5=total damage to plant; 0=no damage to plant).

[2] = system: Triticum aestivium (TRZAW); assay: B1 Pre-emergence herbicidal activity; set-up: key: 5=total damage to plant; 0=no damage to plant; settings: pre-emergence application, rate 1000 g/ha, evaluated after 13 days
Summary of the method: (§2)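 Pots of sown seeds were sprayed one day after sowing, pre-emergence, with compound in acetone/water (50:50) containing 0.5% Tween 20. Plants were grown in a glasshouse at 24/16 °C day/night, 14 h light and 65% humidity. Damage was scored after 13 days on a 0 (none) to 5 (total) scale.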

[3] = system: Alopecurus myosuroides (ALOMY); assay: B1 Pre-emergence herbicidal activity; set-up: key: 5=total damage to plant; 0=no damage to plant; settings: pre-emergence application, rate 1000 g/ha, evaluated after 13 days
Summary of the method: as §2

Avena fatua (AVEFA) [4] = assay: B1 Pre-emergence herbicidal activity; set-up: key: 5=total damage to plant; 0=no damage to plant; settings: pre-emergence application, rate 1000 g/ha, evaluated after 13 days
Summary of the method: as §2

[5] = system: Echinochloa crus-galli (ECHCG); assay: B2 Post-emergence herbicidal activity; set-up: key to Post-emergence herbicidal activity, ECHCG (damage score 0-5): 5=total damage to plant; 0=no damage to plant; settings: post-emergence application, rate 1000 g/ha, evaluated after 13 days
Summary of the method: (§3)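 Plants grown 8 days in a glasshouse (24/16° C day/night, 14 h light, 65% humidity) were sprayed post-emergence with active ingredient formulated in acetone/water (50:50) containing 0.5% Tween 20. Damage was scored after 13 days on a 0–5 scale (5 = total damage).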

Setaria fabenr (SETFA) = assay: B1 Pre-emergence herbicidal activity; set-up: key to Pre-emergence herbicidal activity, SETFA (damage score 0-5): 5=total damage to plant; 0=no damage to plant; settings: pre-emergence application, rate 1000 g/ha, evaluated after 13 days
Summary of the method: as §2

Lolium perenne (LOLPE) [6] = assay: B1 Pre-emergence herbicidal activity; set-up: key to Pre-emergence herbicidal activity, LOLPE (damage score 0-5): 5=total damage to plant; 0=no damage to plant; settings: pre-emergence application, rate 1000 g/ha, evaluated after 13 days
Summary of the method: as §2

Setaria fabenri (SETFA) = assay: B2 Post-emergence herbicidal activity; set-up: key: 5=total damage to plant; 0=no damage to plant; settings: post-emergence application, rate 1000 g/ha, evaluated after 13 days
Summary of the method: as §3

[7] = system: Triticum aestivium (TRZAW); assay: B2 Post-emergence herbicidal activity; set-up: key: 5=total damage to plant; 0=no damage to plant; settings: post-emergence application, rate 1000 g/ha, evaluated after 13 days
Summary of the method: as §3

[8] = system: Alopecurus myosuroides (ALOMY); assay: B2 Post-emergence herbicidal activity; set-up: key: 5=total damage to plant; 0=no damage to plant; settings: post-emergence application, rate 1000 g/ha, evaluated after 13 days
Summary of the method: as §3

[9] = system: Echinochloa crus-galli (ECHCG); assay: B1 Pre-emergence herbicidal activity; set-up: key to Pre-emergence herbicidal activity, ECHCG (damage score 0-5): 5=total damage to plant; 0=no damage to plant; settings: pre-emergence application, rate 1000 g/ha, evaluated after 13 days
Summary of the method: as §2

Avena fatua (AVEFA) [10] = assay: B2 Post-emergence herbicidal activity; settings: post-emergence application, rate 1000 g/ha, evaluated after 13 days
Description: as §1

CCCCC(=O)Nc1ccc(-c2cncc(F)c2)nc1C(F)(F)F [Compound C49]
Post-emergence herbicidal activity, LOLPE (damage score 0-5) (Lolium perenne (LOLPE) [1]): 3
Pre-emergence herbicidal activity, TRAZW (damage score 0-5) [2]: 0
Pre-emergence herbicidal activity, ALOMY (damage score 0-5) [3]: 1
Pre-emergence herbicidal activity, AVEFA (damage score 0-5) (Avena fatua (AVEFA) [4]): 2
Post-emergence herbicidal activity, ECHCG (damage score 0-5) [5]: 5
Pre-emergence herbicidal activity, SETFA (damage score 0-5) (Setaria fabenr (SETFA)): 5
Pre-emergence herbicidal activity, LOLPE (damage score 0-5) (Lolium perenne (LOLPE) [6]): 1
Post-emergence herbicidal activity, SETFA (damage score 0-5) (Setaria fabenri (SETFA)): 5
Post-emergence herbicidal activity, TRAZW (damage score 0-5) [7]: 0
Post-emergence herbicidal activity, ALOMY (damage score 0-5) [8]: 1
Pre-emergence herbicidal activity, ECHCG (damage score 0-5) [9]: 5
Post-emergence herbicidal activity, AVEFA (damage score 0-5) (Avena fatua (AVEFA) [10]): 4

O=C(CC(F)(F)F)Nc1ccc(-c2cncc(F)c2)nc1C(F)(F)F [Compound C56]
Post-emergence herbicidal activity, LOLPE (damage score 0-5) (Lolium perenne (LOLPE) [1]): 2
Pre-emergence herbicidal activity, TRAZW (damage score 0-5) [2]: 0
Pre-emergence herbicidal activity, ALOMY (damage score 0-5) [3]: 0
Pre-emergence herbicidal activity, AVEFA (damage score 0-5) (Avena fatua (AVEFA) [4]): 1
Post-emergence herbicidal activity, ECHCG (damage score 0-5) [5]: 4
Pre-emergence herbicidal activity, SETFA (damage score 0-5) (Setaria fabenr (SETFA)): 4
Pre-emergence herbicidal activity, LOLPE (damage score 0-5) (Lolium perenne (LOLPE) [6]): 0
Post-emergence herbicidal activity, SETFA (damage score 0-5) (Setaria fabenri (SETFA)): 4
Post-emergence herbicidal activity, TRAZW (damage score 0-5) [7]: 1
Post-emergence herbicidal activity, ALOMY (damage score 0-5) [8]: 0
Pre-emergence herbicidal activity, ECHCG (damage score 0-5) [9]: 3
Post-emergence herbicidal activity, AVEFA (damage score 0-5) (Avena fatua (AVEFA) [10]): 3

Cc1ccc(C(=O)Nc2ccc(-c3cncc(F)c3)nc2C(F)(F)F)s1 [Compound C52]
Post-emergence herbicidal activity, LOLPE (damage score 0-5) (Lolium perenne (LOLPE) [1]): 2
Pre-emergence herbicidal activity, TRAZW (damage score 0-5) [2]: 0
Pre-emergence herbicidal activity, ALOMY (damage score 0-5) [3]: 1
Pre-emergence herbicidal activity, AVEFA (damage score 0-5) (Avena fatua (AVEFA) [4]): 1
Post-emergence herbicidal activity, ECHCG (damage score 0-5) [5]: 4
Pre-emergence herbicidal activity, SETFA (damage score 0-5) (Setaria fabenr (SETFA)): 5
Pre-emergence herbicidal activity, LOLPE (damage score 0-5) (Lolium perenne (LOLPE) [6]): 1
Post-emergence herbicidal activity, SETFA (damage score 0-5) (Setaria fabenri (SETFA)): 5
Post-emergence herbicidal activity, TRAZW (damage score 0-5) [7]: 0
Post-emergence herbicidal activity, ALOMY (damage score 0-5) [8]: 0
Pre-emergence herbicidal activity, ECHCG (damage score 0-5) [9]: 4
Post-emergence herbicidal activity, AVEFA (damage score 0-5) (Avena fatua (AVEFA) [10]): 4

C/C=C/C(=O)Nc1ccc(-c2cncc(F)c2)nc1C(F)(F)F [Compound C23]
Post-emergence herbicidal activity, LOLPE (damage score 0-5) (Lolium perenne (LOLPE) [1]): 3
Pre-emergence herbicidal activity, TRAZW (damage score 0-5) [2]: 1
Pre-emergence herbicidal activity, ALOMY (damage score 0-5) [3]: 1
Pre-emergence herbicidal activity, AVEFA (damage score 0-5) (Avena fatua (AVEFA) [4]): 3
Post-emergence herbicidal activity, ECHCG (damage score 0-5) [5]: 5
Pre-emergence herbicidal activity, SETFA (damage score 0-5) (Setaria fabenr (SETFA)): 5
Pre-emergence herbicidal activity, LOLPE (damage score 0-5) (Lolium perenne (LOLPE) [6]): 1
Post-emergence herbicidal activity, SETFA (damage score 0-5) (Setaria fabenri (SETFA)): 5
Post-emergence herbicidal activity, TRAZW (damage score 0-5) [7]: 0
Post-emergence herbicidal activity, ALOMY (damage score 0-5) [8]: 0
Pre-emergence herbicidal activity, ECHCG (damage score 0-5) [9]: 5
Post-emergence herbicidal activity, AVEFA (damage score 0-5) (Avena fatua (AVEFA) [10]): 3

Cc1nc(-c2cncc(F)c2)ccc1NC(=O)C(C)C [Compound C3]
Post-emergence herbicidal activity, LOLPE (damage score 0-5) (Lolium perenne (LOLPE) [1]): 3
Pre-emergence herbicidal activity, TRAZW (damage score 0-5) [2]: 0
Pre-emergence herbicidal activity, ALOMY (damage score 0-5) [3]: 0
Pre-emergence herbicidal activity, AVEFA (damage score 0-5) (Avena fatua (AVEFA) [4]): 0
Post-emergence herbicidal activity, ECHCG (damage score 0-5) [5]: 5
Pre-emergence herbicidal activity, SETFA (damage score 0-5) (Setaria fabenr (SETFA)): 5
Pre-emergence herbicidal activity, LOLPE (damage score 0-5) (Lolium perenne (LOLPE) [6]): 1
Post-emergence herbicidal activity, SETFA (damage score 0-5) (Setaria fabenri (SETFA)): 5
Post-emergence herbicidal activity, TRAZW (damage score 0-5) [7]: 1
Post-emergence herbicidal activity, ALOMY (damage score 0-5) [8]: 1
Pre-emergence herbicidal activity, ECHCG (damage score 0-5) [9]: 4
Post-emergence herbicidal activity, AVEFA (damage score 0-5) (Avena fatua (AVEFA) [10]): 3

CC(C)(C)C(=O)Nc1ccc(-c2cncc(F)c2)nc1C(F)(F)F [Compound C34]
Post-emergence herbicidal activity, LOLPE (damage score 0-5) (Lolium perenne (LOLPE) [1]): 2
Pre-emergence herbicidal activity, TRAZW (damage score 0-5) [2]: 0
Pre-emergence herbicidal activity, ALOMY (damage score 0-5) [3]: 0
Pre-emergence herbicidal activity, AVEFA (damage score 0-5) (Avena fatua (AVEFA) [4]): 0
Post-emergence herbicidal activity, ECHCG (damage score 0-5) [5]: 4
Pre-emergence herbicidal activity, SETFA (damage score 0-5) (Setaria fabenr (SETFA)): 5
Pre-emergence herbicidal activity, LOLPE (damage score 0-5) (Lolium perenne (LOLPE) [6]): 0
Post-emergence herbicidal activity, SETFA (damage score 0-5) (Setaria fabenri (SETFA)): 5
Post-emergence herbicidal activity, TRAZW (damage score 0-5) [7]: 1
Post-emergence herbicidal activity, ALOMY (damage score 0-5) [8]: 1
Pre-emergence herbicidal activity, ECHCG (damage score 0-5) [9]: 2
Post-emergence herbicidal activity, AVEFA (damage score 0-5) (Avena fatua (AVEFA) [10]): 3

O=C1CCCN1c1ccc(-c2cncc(F)c2)nc1C(F)(F)F [Compound C55]
Post-emergence herbicidal activity, LOLPE (damage score 0-5) (Lolium perenne (LOLPE) [1]): 2
Pre-emergence herbicidal activity, TRAZW (damage score 0-5) [2]: 0
Pre-emergence herbicidal activity, ALOMY (damage score 0-5) [3]: 0
Pre-emergence herbicidal activity, AVEFA (damage score 0-5) (Avena fatua (AVEFA) [4]): 1
Post-emergence herbicidal activity, ECHCG (damage score 0-5) [5]: 4
Pre-emergence herbicidal activity, SETFA (damage score 0-5) (Setaria fabenr (SETFA)): 4
Pre-emergence herbicidal activity, LOLPE (damage score 0-5) (Lolium perenne (LOLPE) [6]): 1
Post-emergence herbicidal activity, SETFA (damage score 0-5) (Setaria fabenri (SETFA)): 4
Post-emergence herbicidal activity, TRAZW (damage score 0-5) [7]: 0
Post-emergence herbicidal activity, ALOMY (damage score 0-5) [8]: 1
Pre-emergence herbicidal activity, ECHCG (damage score 0-5) [9]: 1
Post-emergence herbicidal activity, AVEFA (damage score 0-5) (Avena fatua (AVEFA) [10]): 3

CCC(=O)Nc1ccc(-c2cncnc2)nc1C#N [Compound C116]
Post-emergence herbicidal activity, LOLPE (damage score 0-5) (Lolium perenne (LOLPE) [1]): 1
Pre-emergence herbicidal activity, ALOMY (damage score 0-5) [3]: 0
Pre-emergence herbicidal activity, AVEFA (damage score 0-5) (Avena fatua (AVEFA) [4]): 1
Post-emergence herbicidal activity, ECHCG (damage score 0-5) [5]: 4
Pre-emergence herbicidal activity, SETFA (damage score 0-5) (Setaria fabenr (SETFA)): 5
Pre-emergence herbicidal activity, LOLPE (damage score 0-5) (Lolium perenne (LOLPE) [6]): 0
Post-emergence herbicidal activity, SETFA (damage score 0-5) (Setaria fabenri (SETFA)): 5
Post-emergence herbicidal activity, TRAZW (damage score 0-5) [7]: 0
Post-emergence herbicidal activity, ALOMY (damage score 0-5) [8]: 0
Pre-emergence herbicidal activity, ECHCG (damage score 0-5) [9]: 3
Post-emergence herbicidal activity, AVEFA (damage score 0-5) (Avena fatua (AVEFA) [10]): 2

O=C(Nc1ccc(-c2cncnc2)nc1C(F)(F)F)c1ccccc1 [Compound C17]
Post-emergence herbicidal activity, LOLPE (damage score 0-5) (Lolium perenne (LOLPE) [1]): 2
Pre-emergence herbicidal activity, TRAZW (damage score 0-5) [2]: 0
Pre-emergence herbicidal activity, ALOMY (damage score 0-5) [3]: 0
Pre-emergence herbicidal activity, AVEFA (damage score 0-5) (Avena fatua (AVEFA) [4]): 3
Post-emergence herbicidal activity, ECHCG (damage score 0-5) [5]: 5
Pre-emergence herbicidal activity, SETFA (damage score 0-5) (Setaria fabenr (SETFA)): 5
Pre-emergence herbicidal activity, LOLPE (damage score 0-5) (Lolium perenne (LOLPE) [6]): 1
Post-emergence herbicidal activity, TRAZW (damage score 0-5) [7]: 0
Post-emergence herbicidal activity, ALOMY (damage score 0-5) [8]: 0
Pre-emergence herbicidal activity, ECHCG (damage score 0-5) [9]: 4
Post-emergence herbicidal activity, AVEFA (damage score 0-5) (Avena fatua (AVEFA) [10]): 3
